*1 amine or outer side, *2 acyl side, *3 side chain or, on linkers, in order; H or OH if unused. Where a SMILES comes first, the peptide text is derived from it. Bridges are numbered along the chain shown (N, C = ends). [ ]: non-standard residue; d: D form. The star is where a group is joined. X1 = COc1cc2cc(c1Cl)N(C)C(=O)C[C@H](OC(=O)[C@H](C)N(C)C(=O)CCSSC(C)CCC(=O)*)[C@]1(C)O[C@H]1[C@H](C)[C@@H]1C[C@@](O)(NC(=O)O1)[C@H](OC)/C=C/C=C(\C)C2; 1Nal = N[C@@H](Cc1cccc2ccccc12)C(=O)O; TBMB = c1c(C[*:1])cc(C[*:3])cc1C[*:2]; Tle = CC(C)(C)[C@H](N)C(=O)O; βAla = NCCC(=O)O; Sar = CNCC(=O)O
Columns and labels:
[1] = system: 3LL syngeneic model; assay: In vivo efficacy of BT1718 alone or in combination with Anti-PD-1 antibody in 3LL syngeneic model (Example 10); parameters: species or system Mus Musculus
Procedure: The objective of the research was to evaluate the in vivo anti-tumor efficacy of BT1718 alone or in combination with Anti-PD-1 antibody in the treatment of the subcutaneous 3LL syngeneic model in C57BL/6 mice.
The 3LL tumor cells were maintained in vitro as a monolayer culture in medium supplemented with 10% heat inactivated fetal bovine serum at 37° C. in an atmosphere of 5% CO2 in air. The tumor cells were routinely subcultured twice weekly by trypsin-EDTA treatment. The cells growing in an exponential growth phase will be harvested and counted for tumor inoculation.
Each mouse was inoculated subcutaneously at the right flank with 3LL tumor cells (1×106) in 0.1 ml of PBS for tumor development. The animals were randomized and treatment was started when the average tumor volume reaches approximately 105 mm^3 for the efficacy study. The test article administration and the animal numbers in each group were shown in the experimental design table (Table 52).
All the procedures related to animal handling, care and the treatment in the study were performed according to the guidelines of the Association for Assessment and Accreditation of Laboratory Animal Care (AAALAC). At the time of routine monitoring, the animals were daily checked for any effects of tumor growth and treatments on normal behavior such as mobility, food and water consumption (by looking only), body weight gain/loss (body weights were measured every day), eye/hair matting and any other abnormal effect as stated in the protocol. Death and observed clinical signs were recorded on the basis of the numbers of animals within each subset.
The major endpoint was to see if the tumor growth could be delayed or mice could be cured. Tumor size was measured three times weekly in two dimensions using a caliper, and the volume was expressed in mm^3 using the formula: V=0.5 a×b2 where a and b are the long and short diameters of the tumor, respectively. The tumor size was then used for calculations of T/C value. The T/C value (in percent) is an indication of antitumor effectiveness; T and C are the mean volumes of the treated and control groups, respectively, on a given day.
TGI was calculated for each group using the formula: TGI (%)=[1−(Ti−T0)/(Vi−V0)]×100; Ti is the average tumor volume of a treatment group on a given day, T0 is the average tumor volume of the treatment group on the day of treatment start, Vi is the average tumor volume of the vehicle control group on the same day with Ti, and V0 is the average tumor volume of the vehicle group on the day of treatment start.
Summary statistics, including mean and the standard error of the mean (SEM), are provided for the tumor volume of each group at each time point.
Statistical analysis of difference in tumor volume among the groups was conducted on the data obtained at the best therapeutic time point after the final dose.
A one-way ANOVA was performed to compare tumor volume among groups, and when a significant F-statistics (a ratio of treatment variance to the error variance) was obtained, comparisons between groups were carried out with Games-Howell test. All data were analyzed using Prism. P<0.05 was considered to be statistically significant.

[2] = system: HT1080 cell line; assay: In vitro cytotoxicity, ATP endpoint assay after 72 hours incubation; type: cell-based; conditions: HT-1080 cells
Procedure: To evaluate the in vitro cytotoxicity of BT1718 and BT1721 in an HT1080 cell line using an ATP endpoint assay after 72 hours incubation.
Cells were seeded in 96 well plates (75 μl/well, HT1080=7500−15000 cell/well) and incubated overnight at 37° C.+5% CO2.
The day after cell seeding, serial dilutions (1:5) of BT1718 and BT1721 were prepared in DMSO and diluted 1:71 in cell culture media to give 4× final concentrations. Twenty five μl/well was added to the cells (2 μM or 5 μM top final concentration of BT1718 and 2 μM or 5 μM top final concentration of BT1721, <0.6% final DMSO).
Cells were 30-50% confluent upon dosing. Control wells containing 5 μM final concentration of staurosporine (positive control), lysis buffer (1% NP40, 20 mM Tris pH8, 137 mM NaCl, 10% glycerol, 2 mM EDTA, 1 mM Na Orthovanadate, 10 μg/ml leupeptin, 10 μg/ml aprotinin) positive control or media (negative control), were also included. Plates were sealed with gas permeable seals and incubated at 37° C.+5% CO2 for 72 hours. No wash steps were performed.
After a total of 72 hours after dosing, ATPLite reagent (Perkin Elmer) was equilibrated to room temperate and reconstituted in the supplied buffer as per the manufacturer's instructions. One hundred μl 1× detection reagent was added per well. Plates were sealed, protected from light and shaken gently for 20 minutes to ensure complete cell lysis before luminescence was read using a BMG Pherastar FS plate reader. […] Data was analysed using GraphPad Prism. Non-linear regression fit was used to calculate a relative IC50 for each toxic agent: Y=Bottom+(Top−Bottom)/(1+10^((Log Ic50−X)*HillSlope)) where the IC50 is defined as 50% of the total cell kill achieved at the top concentration of toxin.

[3] = Vehicle, ip, biw + BT1718, 3 mpk, iv, biw, day 14
[4] = Vehicle, ip, biw + BT1718, 10 mpk, iv, biw, day 14

## COc1cc2cc(c1Cl)N(C)C(=O)C[C@H](OC(=O)[C@H](C)N(C)C(=O)CCSSC(C)CCC(=O)NCCC(=O)N(C)CC(=O)N(C)CC(=O)N(C)CC(=O)N(C)CC(=O)N(C)CC(=O)N(C)CC(=O)N(C)CC(=O)N(C)CC(=O)N(C)CC(=O)N(C)CC(=O)N[C@@H](C)C(=O)N[C@H]1CSCc3cc4cc(c3)CSC[C@H](NC(=O)[C@@H](C)NC(=O)[C@H](Cc3cccc5ccccc35)NC(=O)[C@H](CCC(=O)O)NC(=O)[C@H](CC(N)=O)NC(=O)[C@@H](C)NC1=O)C(=O)N[C@@H](CCC(=O)O)C(=O)N[C@@H](CC(=O)O)C(=O)N[C@@H](Cc1ccccc1)C(=O)N[C@@H](Cc1ccc(O)cc1)C(=O)N[C@@H](CC(=O)O)C(=O)N[C@@H](C(C)(C)C)C(=O)N[C@H](C(N)=O)CSC4)[C@]1(C)O[C@H]1[C@H](C)[C@@H]1C[C@@](O)(NC(=O)O1)[C@H](OC)/C=C/C=C(\C)C2 (some centres unmarked) [BT1718] ({X1-βAla}-[Sar][Sar][Sar][Sar][Sar][Sar][Sar][Sar][Sar][Sar]AC[dA]NE[1Nal][dA]CEDFYD[Tle]C-NH2; linker 12-18-25 via TBMB (inferred))
[1]; BT1718 3 mg/kg, day 14
  TGI: 72.9%
  Tumor Volume: 612 mm^3
[1]; BT1718 10 mg/kg, day 14
  TGI: 98.1%
  Tumor Volume: 132 mm^3
[1]; Vehicle, ip, biw + BT1718, 3 mpk, iv, biw, day 0
  tumor volume trace over time: 96 ± 7 mm^3
[1]; Vehicle, ip, biw + BT1718, 3 mpk, iv, biw, day 3
  tumor volume trace over time: 167 ± 29 mm^3
[1]; Vehicle, ip, biw + BT1718, 3 mpk, iv, biw, day 7
  tumor volume trace over time: 320 ± 71 mm^3
[1]; Vehicle, ip, biw + BT1718, 3 mpk, iv, biw, day 10
  tumor volume trace over time: 396 ± 79 mm^3
[1]; [3]
  T/C: 30.6%
  TGI: 72.9%
  tumor volume trace over time: 612 ± 133 mm^3
[1]; Vehicle, ip, biw + BT1718, 3 mpk, iv, biw, day 14, Mean ± SEM
  Tumor Volume: 612 ± 133 mm^3
[1]; Vehicle, ip, biw + BT1718, 3 mpk, iv, biw, day 17
  tumor volume trace over time: 968 ± 211 mm^3
[1]; Vehicle, ip, biw + BT1718, 3 mpk, iv, biw, day 21
  tumor volume trace over time: 1177 ± 196 mm^3
[1]; Vehicle, ip, biw + BT1718, 10 mpk, iv, biw, day 0
  tumor volume trace over time: 96 ± 6 mm^3
[1]; Vehicle, ip, biw + BT1718, 10 mpk, iv, biw, day 3
  tumor volume trace over time: 134 ± 17 mm^3
[1]; Vehicle, ip, biw + BT1718, 10 mpk, iv, biw, day 7
  tumor volume trace over time: 141 ± 18 mm^3
[1]; Vehicle, ip, biw + BT1718, 10 mpk, iv, biw, day 10
  tumor volume trace over time: 128 ± 16 mm^3
[1]; [4]
  T/C: 6.6%
  TGI: 98.1%
  tumor volume trace over time: 132 ± 26 mm^3
[1]; Vehicle, ip, biw + BT1718, 10 mpk, iv, biw, day 14, Mean ± SEM
  Tumor Volume: 132 ± 26 mm^3
[1]; Vehicle, ip, biw + BT1718, 10 mpk, iv, biw, day 17
  tumor volume trace over time: 129 ± 33 mm^3
[1]; Vehicle, ip, biw + BT1718, 10 mpk, iv, biw, day 21
  tumor volume trace over time: 104 ± 41 mm^3
[2]; ATP endpoint
  IC50: 1 nM
[2]
  relative cytotoxic activity versus BT1721: approximately ten-fold more active

— patent publication US10441663B2, “Methods for treating cancer” (Bicycle Therapeutics Limited, priority 2016, dated 2019)
